Experimental data published in patent publication US5932709A (University of Michigan, priority 1997, dated 1999).
pIC50: −log10 of the molar value. Several values for one entry are separate records, joined by “and”; a condition that tells them apart may be missing. Equal entries are not always repeated. Structures can show the parent of a compound that is named as a salt.

How the values were obtained:
[1] = as hydrochloride salt; cited from earlier work
[2] = test system: MX-1 human breast tumor xenograft; experiment: in vivo
Description: For all the models, the vehicle used to deliver the analog of interest was isotonic saline.
For the MX-1 human breast tumor xenograft models, the following procedure was used. Nude mice are implanted s.c. by trocar with fragments of MX-1 mammary carcinomas harvested from s.c. growing MX-1 tumors in nude mice hosts. When tumors are approximately 5 mm×5 mm in size (usually about ten days after inoculation), the animals are pair-matched into treatment and control groups. Each group contains ten tumored mice, each of which is ear-tagged and followed individually throughout the experiment. The administration of drugs or vehicle begins the day the animals are pair-matched (day 1). The doses, route of drug administration and schedule are selected as appropriate for the study in question. If the MTD dose of an agent is not known, it is determined in an initial dosing experiment in non-tumored mice. In a typical experiment, drugs are given at their MTD and 1/2 MTD doses i.p. on a daily×5 schedule.
The experiment is usually terminated when control tumors reach a size of 2-3 g. Mice are weighed twice weekly, and tumor measurements are taken by calipers twice weekly, starting on day 1. These tumor measurements are converted to mg tumor weight by a well known formula, and from these calculated tumor weights the termination date can be determined. Upon termination, all mice are weighed, sacrificed, and their tumors excised. Tumors are weighed, and the mean tumor weight per group is calculated.
Some drugs cause tumor shrinkage in the MX-1 model. With these agents, the final weight of a given tumor is subtracted from its own weight at the start of the treatment on day 1. This difference divided by the initial tumor weight is the % shrinkage. A mean % tumor shrinkage can be calculated from data from the mice in a group that experienced MX-1 regressions. If the tumor completely disappears in a mouse, this is considered a complete regression or complete tumor shrinkage. If desired, mice with partial or total tumor regressions can be kept alive past the termination date to see whether they live to become long term, tumor-free survivors.
Note that in the following table the abbreviation SR refers to tumor shrinkage rate, while those entries followed by a superscripted `2` are tumor growth inhibition rates, not tumor shrinkage rates.

[3] = test system: Lewis lung carcinoma; settings: vs unmodified camptothecin, side by side; cited from earlier work
[4] = target: topoisomerase I; settings: TPT-HCl; Wall et al.; cited from earlier work
[5] = test system: human lung tumor xenograft; experiment: Human lung tumor xenograft model; format: in vivo, human tumor in nude mice
Description: (§1) For the human lung and prostate tumor xenograft models the following procedure was used. Nude mice were implanted s.c. by trocar with fragments of human lung or prostate carcinomas harvested from s.c. growing tumors in nude mice hosts. When tumors were approximately 5 mm×5 mm in size (usually ten to fourteen days after inoculation), the animals were pair-matched into treatment and control groups. Each group contained 10 tumored mice, each of which was ear-tagged and followed individually throughout the experiment. […] The doses, route of drug administration and schedule were selected as appropriate for the study in question. (See above protocol). […] Topotecan was run as a positive control at its MTD dose on a daily×5 and a daily×1 schedule. Male nude mice were used for both prostate studies.
(§2) Mice are weighed twice weekly, and tumor measurements were taken by calipers twice weekly, starting on day 1.
(§3) Some drugs cause tumor shrinkage in the human tumor xenograft models. […] A mean % tumor shrinkage can be calculated from the data from the mice in a group that experienced tumor regressions.

[6] = test system: P388 murine leukemia; settings: vs unmodified camptothecin, side by side; cited from earlier work
[7] = test system: carcinoma cells; settings: in vitro clonogenic assay / tumor cell growth, in words; cited from earlier work
[8] = test system: murine P388 leukemia; experiment: Murine P388 leukemia model in vivo; design: species or system mouse (B6D2F1)
Protocol: (§4) For the B16 melanoma model, the following procedure was used. B6D2F1 mice receive i.p. inocula of B16 murine melanoma brei prepared from B16 tumors growing s.c. in mice (day 0). […] If dosing information for agents is not available, the maximum tolerated dose (MTD) is determined in initial dose finding experiments in non-tumored mice.
(§5) The mean survival times of all groups are calculated, and results are expressed as mean survival of treated mice/mean survival of control mice (T/C)×100%. A T/C value of 150 means that the mice in the treated group lived 50% longer than those of the control group; this is sometimes referred to as the increase in life span or ILS value.
For the P388 leukemia model, the procedure followed is exactly the same as the aforementioned B16 model. The tumor inoculum is prepared by removing ascited fluid containing P388 cells from tumored B6D2F1 mice, centrifuging the cells, and then resuspending the leukemia cells in saline. Mice receive 1×10^6 P388 cells i.p. on day 0.

[9] = test system: murine B16 melanoma; experiment: Murine B16 melanoma model in vivo; design: species or system mouse (B6D2F1); settings: for Survivors: 60-day
Protocol: 1) Murine B16 Melanoma Model
as §4, §5
Mice that survive for 60 days are considered long-term survivors, or cures, in the B16 model. The universally accepted cut-off for activity in this model, which has been for years by the National Cancer Institute, is T/C=125. Conventional use of B16 over the years has set the following levels of activity: T/C<125, no activity, T/C=125-150, weak activity; T/C=150-200, modest activity; T/C=200-300, high activity; T/C>300, with long term survivors; excellent, curative activity.

[10] = test system: tumor growth; settings: in words; cited from earlier work
[11] = human, in vivo; cited from earlier work
[12] = test system: human prostate tumor xenograft; experiment: Human prostate tumor xenograft model; format: in vivo, human tumor in nude mice
Description: as §1, §2, §3

[13] = test system: B16 murine melanoma; settings: vs unmodified camptothecin, side by side; cited from earlier work

## CC[C@@]1(O)C(=O)OCc2c1cc1n(c2=O)Cc2cc3c(CN(C)C)c(O)ccc3nc2-1 [TPT, [(s)-9-dimethylaminomethyl-10-hydroxycamptothecin hydrochloride], reference compound]
[1]
  water solubility: 1000 µg/mL
[2]; 4 mg/kg
  weight loss: 15%
[2]; 4 mg/kg i.p. daily×5
  Tox Deaths: 0/10
  ΔWeight (%): -15.4%
[2]; 4 mg/kg i.p. daily×5, all 10 mice, HAR 6 experiment
  mean tumor shrinkage: 94%
[2]; 4 mg/kg i.p. daily×5, partial (94%)
  Shrinkage (animals): 6/10
[2]; 4 mg/kg, HAR 6 experiment
  mice with tumor shrinkage: 10
  mortality: no mortality
[2]; 4 mg/kg, second experiment
  complete regressions: one
  drug-related deaths: one
  mice with tumor growth inhibition: two
  partial responders: six
[2]; 4 mg/kg, complete (100%) shrinkage
  Shrinkage (animals): 1/10
[2]; 4 mg/kg, two mice, second experiment
  tumor growth inhibition: 94%
[2]; in vivo
  SR(%) (Tumor Shrinkage Rate): 94% and 100%
[3]
  in vivo antitumor efficacy: superior to unmodified camptothecin
[4]
  pIC50: 5.96
  topoisomerase I IC50: 0.504 µg/mL
[5]; 4 mg/kg × 5 days
  Deaths: 0/10
  Shrink (% Tumor Shrinkage Rate): 55%
  Shrink (number of animals): 2/10
  TGI (% Tumor Growth Inhibition Rate): 66%
  TGI (number of animals): 8/10
[5]; 8 mg single ds
  Deaths: 0/10
  Shrink (number of animals): 0/10
  TGI (number of animals): 0/10
[5]; single dose, in words
  efficacy, single dose: completely ineffective
[6]
  in vivo antitumor efficacy: superior to unmodified camptothecin
[7]
  anti-tumor effect in vitro: significant anti-tumor effects
[8]; 4 mg/kg daily×5
  30-day survivors: Three
[8]; 4 mg/kg i.p. daily×5
  T/C (mean survival treated/control): 297%
  Tox Deaths: 0/10
  ΔWeight (%): -6.6%
[8]; 4 mg/kg i.p. daily×5, 30-day
  Survivors: 3/10
[8]; i.p. five day schedule, in words
  efficacy vs P388 leukemia: comparable to that produced by HAR 6
[9]; 2 mg/kg
  60-day survivors (cures): one
[9]; 2 mg/kg i.p. daily×5
  T/C (mean survival treated/control): 201%
  Tox Deaths: 0/10
  ΔWeight (%): +1.9%
  Survivors: 1/10
[9]; 2 mg/kg i.p. daily×5, listed as Topotecan
  T/C (mean survival treated/control): 210%
[9]; 4 mg/kg i.p. daily×5
  T/C (mean survival treated/control): 212%
  Tox Deaths: 0/10
  ΔWeight (%): -7.0%
  Survivors: 0/10
[10]
  effectiveness against tumor growth in animal studies: at least as good or better than camptothecin
[11]
  side effects in human clinical studies: myelosuppression, neutropenia, and thrombocytopenia
[12]; 3 mg/kg × 5 days
  Deaths: 0/10
  Shrink (number of animals): 0/10
  TGI (% Tumor Growth Inhibition Rate): 35%
  TGI (number of animals): 10/10
[12]; 8 mg single ds
  Deaths: 0/10
  Shrink (number of animals): 0/10
  TGI (number of animals): 0/10
[12]; single dose, in words
  efficacy, single dose: completely ineffective
[13]
  in vivo antitumor efficacy: superior to unmodified camptothecin
